biological target: T1, wild-type human melanocortin 4 receptor (WT-hMC4R) (Homo sapiens, UniProt P32245); assay: Cyclic AMP assay (HTRF), antagonist competition against NDP-α-MSH; assay type: cell-based; conditions: HEK293T cells expressing double-tagged WT-hMC4R; cAMP accumulation; 1 hour compound then 4 nM NDP-α-MSH 30 min
T1 construct: expressed in transfected cells; cDNA from UMR cDNA resource center
Protocol: Intracellular cyclic 3′-5′ adenosine monophosphate (cAMP) accumulation was measured using a competitive immunoassay based on HTRF (Homogeneous Time-Resolved Fluorescence) technology (cAMP dynamic-2, Cis-Bio).
HEK293T stable cell line expressing double-tagged WT-hMC4R construct were collected and washed in cAMP buffer (1XD-PBS pH 7.4, 0.1% glucose). 40,000 cells/well were then dispensed in 96-well plates in cAMP buffer [1XD-PBS, 1% BSA, 0.1% Glucose, 0.75 mM 3-isobutyl-1methyl-xanthine (IBMX, Sigma)] and incubated either for antagonist competition assay: 1 hour at 37° C. with various concentrations of compound [0.01 nM-10 μM] followed by 30 min incubation at 37° C. with 4 nM of NDP-α-MSH (Sigma) or for agonist assay: 1 hour at 37° C. with various concentrations of compound [0.01 nM-10 μM]. 10,000 cells were transferred in 384-well plates, lysed and incubated with cAMP labeled with the dye d2 and anti-cAMP M-Antibody labeled with Cryptate following the manufacturer's protocol.
Reading of HTRF signal was performed on Artemis TR-FRET plate reader (Cosmo Bio).
All curve fitting was conducted using non-linear regression analyses from PRISM (version 4.0c, GraphPad Inc.) and the determination of Rmax and EC50 or IC50 parameters were obtained from sigmoidal dose-response phase (variable slope) equation.
A cDNA encoding a wild-type human MC4R with a 3 tandem copies of Hemaglutinine (HA) epitote sequence from UMR cDNA resource center was modified using known techniques in the art (e.g., PCR, cloning) to fused in frame at the C-terminal a venus-Yellow Fluorescent Protein (YFP) cDNA.
The resultant cDNA was then subcloned in eukaryotic expression vector, e.g. pcDNA 3.1(+) (Invitrogen).
The double tagged WT-hMC4R was transfected in HEK293T cells with lipofectamine (Invitrogen) following the manufacturer's instructions and permanently transfected clonal cell lines were selected by resistance to the neomycin analog G418.
HEK293T stable cell line expressing wild-type human melanocortin 4 receptor (WT-hMC4R) containing an N-terminal 3xHA epitope tag and an intracellular C-terminal venus-yellow fluorescent protein (v-YFP) were maintained at 37° C. in humidified air containing 5% CO2 in Dulbecoo's modified Eagle's medium (DMEM) supplemented with 10% fetal bovine serum (FBS), 100 U/ml penicillin/streptomycin (DMEM complete/10% FBS). Cells were generally at 70%-80% confluence on the day of assay.

T1 sequence (P32245 whole entry): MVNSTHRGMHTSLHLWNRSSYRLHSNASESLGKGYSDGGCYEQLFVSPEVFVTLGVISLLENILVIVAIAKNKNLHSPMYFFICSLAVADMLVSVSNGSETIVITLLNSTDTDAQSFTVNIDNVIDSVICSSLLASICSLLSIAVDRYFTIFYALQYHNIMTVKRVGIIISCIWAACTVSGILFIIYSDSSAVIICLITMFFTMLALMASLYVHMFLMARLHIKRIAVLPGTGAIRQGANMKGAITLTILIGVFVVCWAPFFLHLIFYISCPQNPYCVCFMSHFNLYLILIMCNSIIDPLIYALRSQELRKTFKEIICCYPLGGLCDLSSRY

| Compound | IC50 [µM] |
| --- | --- |
| CCCCN(CCCC)C(=O)c1ccn2nc(-c3ccc(OC)cc3)c(CCCN3CCCCC3)c2c1 [Example 1, N,N-Dibutyl-2-(4-methoxyphenyl)-3-(3-(piperidin-1-yl)propyl)pyrazolo[1,5-a]pyridine-5-carboxamide] | 1 to 5 |
| COc1ccc(-c2nn3ccc(C(=O)N(CCC(C)C)CCC(C)C)cc3c2CCCN2CCCCC2)cc1 [Example 2] | 1 to 5 |
| COc1ccc(-c2nn3ccc(C(=O)N(CCC(C)C)CCC(C)C)cc3c2/C=C/CN2CCCCC2)cc1 [Example 3] | 0.5 to 1 |
| CC(C)CCN(CCC(C)C)C(=O)c1ccn2nc(-c3ccc(C(C)(C)C)cc3)c(CCCN3CCCCC3)c2c1 [Example 4] | 1 to 5 |
| CC(C)CCN(CCC(C)C)C(=O)c1ccn2nc(-c3ccc(C(C)(C)C)cc3)c(/C=C/CN3CCCCC3)c2c1 [Example 5] | 1 to 5 |
| CC(C)CCN(CCC(C)C)C(=O)c1ccn2nc(-c3ccc(C(C)(C)C)cc3)c(/C=C/CN3CCCC3)c2c1 [Example 6] | 1 to 5 |
| CCCCN(CCCC)C(=O)c1ccn2nc(-c3ccc(C(C)(C)C)cc3)c(/C=C/CN3CCCCC3)c2c1 [Example 7] | 5 to 15 |
| CC(C)CCN(CCC(C)C)C(=O)c1ccn2nc(-c3ccc(C(C)(C)C)cc3)c(CCCN3CCCC3)c2c1 [Example 8] | 1 to 5 |
| CCCCN(CCCC)C(=O)c1ccn2nc(-c3ccc(C(C)(C)C)cc3)c(CCCN3CCCC3)c2c1 [Example 9] | 5 to 15 |
| CC(C)CCN(CCC(C)C)C(=O)c1ccn2nc(-c3ccc(Cl)cc3)c(/C=C/CN3CCCCC3)c2c1 [Example 10, (E)-2-(4-chlorophenyl)-N,N-diisopentyl-3-(3-(piperidin-1-yl)prop-1-en-1-yl)pyrazolo[1,5-a]pyridine-5-carboxamide] | 0.5 to 1 |
| CC(C)CCN(CCC(C)C)C(=O)c1ccn2nc(-c3ccc(Cl)cc3)c(CCCN3CCCCC3)c2c1 [Example 11, 2-(4-Chlorophenyl)-N,N-diisopentyl-3-(3-(piperidin-1-yl)propyl)pyrazolo[1,5-a]pyridine-5-carboxamide] | 1 to 5 |
| CCCCN(CCCC)C(=O)c1ccn2nc(-c3ccc(OC)cc3)c(/C=C/CN3CCCCC3)c2c1 [Example 12, (E)-N,N-Dibutyl-2-(4-methoxyphenyl)-3-(3-(piperidin-1-yl)prop-1-enyl)pyrazolo[1,5-a]pyridine-5-carboxamide] | 1 to 5 |
| COc1cccc(-c2nn3ccc(C(=O)N(CCC(C)C)CCC(C)C)cc3c2/C=C/CN2CCCCC2)c1 [Example 13] | 0.5 to 1 |
| COc1ccc(-c2nn3ccc(C(=O)N(CCC(C)C)CCC(C)C)cc3c2/C=C/CN2CCCCC2)cc1OC [Example 14] | < 0.5 |
| COc1cccc(-c2nn3ccc(C(=O)N(CCC(C)C)CCC(C)C)cc3c2CCCN2CCCCC2)c1 [Example 15] | < 0.5 |
| COc1ccc(-c2nn3ccc(C(=O)N(CCC(C)C)CCC(C)C)cc3c2CCCN2CCCCC2)cc1OC [Example 16] | < 0.5 |
| COc1ccc(-c2nn3ccc(C(=O)N(CCC(C)C)CCC(C)C)cc3c2/C=C/CN(C)C)cc1 [Example 17] | 5 to 15 |
| COc1ccc(-c2nn3ccc(C(=O)N(CCC(C)C)CCC(C)C)cc3c2CCCN(C)C)cc1 [Example 18] | 5 to 15 |
| CCCCCN(CCCCC)C(=O)c1ccn2nc(-c3ccc(OC)cc3)c(/C=C/CN3CCCCC3)c2c1 [Example 19] | 1 to 5 |
| CCOc1ccc(-c2nn3ccc(C(=O)N(CCC(C)C)CCC(C)C)cc3c2/C=C/CN2CCCCC2)cc1 [Example 20] | 1 to 5 |
| CCCCCN(CCCCC)C(=O)c1ccn2nc(-c3ccc(OC)cc3)c(CCCN3CCCCC3)c2c1 [Example 21] | 1 to 5 |
| CCOc1ccc(-c2nn3ccc(C(=O)N(CCC(C)C)CCC(C)C)cc3c2CCCN2CCCCC2)cc1 [Example 22] | 0.5 to 1 |
| COc1ccc(-c2nn3ccc(C(=O)N(CCC(C)C)CCC(C)C)cc3c2/C=C/CN2CCCC2)cc1 [Example 23] | 1 to 5 |
| CC(C)CCN(CCC(C)C)C(=O)c1ccn2nc(-c3ccc(C(=O)O)cc3)c(/C=C/CN3CCCCC3)c2c1 [Example 24] | 1 to 5 |
| CCCCN(CCC)C(=O)c1ccn2nc(-c3ccc(OC)cc3)c(/C=C/CN3CCCCC3)c2c1 [Example 25] | 1 to 5 |

| Compound | IC50 [µM] |
| --- | --- |
| CCCN(CC1CC1)C(=O)c1ccn2nc(-c3ccc(OC)cc3)c(/C=C/CN3CCCCC3)c2c1 [Example 26] | 5 to 15 |
| CCCN(CC1CC1)C(=O)c1ccn2nc(-c3ccc(OC)cc3)c(CCCN3CCCCC3)c2c1 [Example 27] | 5 to 15 |
| CC(C)CCN(CCC(C)C)C(=O)c1ccn2nc(-c3cccc(Br)c3)c(/C=C/CN3CCCCC3)c2c1 [Example 28] | 1 to 5 |
| CC(=O)c1cccc(-c2nn3ccc(C(=O)N(CCC(C)C)CCC(C)C)cc3c2/C=C/CN2CCCCC2)c1 [Example 29] | 0.5 to 1 |
| COC(=O)c1cccc(-c2nn3ccc(C(=O)N(CCC(C)C)CCC(C)C)cc3c2/C=C/CN2CCCCC2)c1 [Example 30] | < 0.5 |
| COC(=O)c1cccc(-c2nn3ccc(C(=O)N(CCC(C)C)CCC(C)C)cc3c2CCCN2CCCCC2)c1 [Example 31] | < 0.5 |
| CC(C)CCN(CCC(C)C)C(=O)c1ccn2nc(-c3cccc(C(C)O)c3)c(CCCN3CCCCC3)c2c1 (centres unmarked) [Example 32] | 0.5 to 1 |
| CC(=O)c1cccc(-c2nn3ccc(C(=O)N(CCC(C)C)CCC(C)C)cc3c2CCCN2CCCCC2)c1 [Example 33] | < 0.5 |
| CC(C)CCN(CCC(C)C)C(=O)c1ccn2nc(-c3ccccc3Br)c(/C=C/CN3CCCCC3)c2c1 [Example 34] | 1 to 5 |
| CC(=O)c1ccccc1-c1nn2ccc(C(=O)N(CCC(C)C)CCC(C)C)cc2c1/C=C/CN1CCCCC1 [Example 35] | 1 to 5 |
| COC(=O)c1ccccc1-c1nn2ccc(C(=O)N(CCC(C)C)CCC(C)C)cc2c1/C=C/CN1CCCCC1 [Example 36] | 1 to 5 |
| CC(C)CCN(CCC(C)C)C(=O)c1ccn2nc(-c3cccc(Br)c3)c(CCCN3CCCCC3)c2c1 [Example 37] | < 0.5 |
| CC(C)CCN(CCC(C)C)C(=O)c1ccn2nc(-c3ccccc3Br)c(CCCN3CCCCC3)c2c1 [Example 38] | 1 to 5 |
| COC(=O)c1ccccc1-c1nn2ccc(C(=O)N(CCC(C)C)CCC(C)C)cc2c1CCCN1CCCCC1 [Example 39] | 1 to 5 |
| CC(=O)c1ccccc1-c1nn2ccc(C(=O)N(CCC(C)C)CCC(C)C)cc2c1CCCN1CCCCC1 [Example 40] | 1 to 5 |
| CC(C)CCN(CCC(C)C)C(=O)c1ccn2nc(-c3ccc(Br)cc3)c(/C=C/CN3CCCCC3)c2c1 [Example 41, (E)-2-(4-Bromophenyl)-N,N-diisopentyl-3-(3-(piperidin-1-yl)prop-1-en-1-yl)pyrazolo[1,5-a]pyridine-5-carboxamide] | 1 to 5 |
| CC(=O)c1ccc(-c2nn3ccc(C(=O)N(CCC(C)C)CCC(C)C)cc3c2/C=C/CN2CCCCC2)cc1 [Example 42, (E)-2-(4-Acetylphenyl)-N,N-diisopentyl-3-(3-(piperidin-1-yl)prop-1-en-1-yl)pyrazolo[1,5-a]pyridine-5-carboxamide] | 0.5 to 1 |
| COC(=O)c1ccc(-c2nn3ccc(C(=O)N(CCC(C)C)CCC(C)C)cc3c2/C=C/CN2CCCCC2)cc1 [Example 43, (E)-Methyl 4-(5-(diisopentylcarbamoyl)-3-(3-(piperidin-1-yl)prop-1-en-1-yl)pyrazolo[1,5-a]pyridin-2-yl)benzoate] | 0.5 to 1 |
| COC(=O)c1ccc(-c2nn3ccc(C(=O)N(CCC(C)C)CCC(C)C)cc3c2CCCN2CCCCC2)cc1 [Example 44] | 0.5 to 1 |
| CC(C)CCN(CCC(C)C)C(=O)c1ccn2nc(-c3ccc(Br)cc3)c(CCCN3CCCCC3)c2c1 [Example 45] | < 0.5 |
| CC(C)CCN(CCC(C)C)C(=O)c1ccn2nc(-c3ccc(C(C)O)cc3)c(CCCN3CCCCC3)c2c1 (centres unmarked) [Example 46, 2-(4-(1-Hydroxyethyl)phenyl)-N,N-diisopentyl-3-(3-(piperidin-1-yl)propyl)pyrazolo[1,5-a]pyridine-5-carboxamide] | < 0.5 |
| CC(=O)c1ccc(-c2nn3ccc(C(=O)N(CCC(C)C)CCC(C)C)cc3c2CCCN2CCCCC2)cc1 [Example 47, 2-(4-Acetylphenyl)-N,N-diisopentyl-3-(3-(piperidin-1-yl)propyl)pyrazolo[1,5-a]pyridine-5-carboxamide] | 0.5 to 1 |
| CCCCN(CCCC)C(=O)c1ccn2nc(-c3ccc(F)cc3)c(CCCN3CCCCC3)c2c1 [Example 48] | 0.5 to 1 |
| CC(C)CCN(CCC(C)C)C(=O)c1ccn2nc(-c3ccc(F)cc3)c(CCCN3CCCCC3)c2c1 [Example 49] | < 0.5 |
| CCCCCN(CCCCC)C(=O)c1ccn2nc(-c3ccc(F)cc3)c(CCCN3CCCCC3)c2c1 [Example 50] | 1 to 5 |

— patent publication US9018395B2, “Pyrazolopyridine and pyrazolopyrimidine derivatives as melanocortin-4 receptor modulators” (Université de Montréal, priority 2011, dated 2015)
